The target in assay [1] is PI3Kγ (p110γ) Recombinant Human Protein (Homo sapiens (Human), UniProt P48736). The assay can be described thus: PI3K-γ Scintillation Proximity Assay. It counts as biochemical. The procedure, abridged: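 Radiometric SPA readout: […] bound to WGA beads after overnight shaking, IC50 derived from % activity of DMSO control. Reaction used human p110γ, 2 μM ATP, 20 μM PIP2, pH 6.7 MOPS buffer with MgCl2, DTT, CHAPS, 2% DMSO, room temperature.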

Assay [2] concerns the target PI3Kδ (p110δ/p85α) Recombinant Human Protein (Homo sapiens (Human), UniProt O00329). The assay can be described thus: PI3Kδ Scintillation Proximity Assay. It counts as biochemical. The procedure, abridged:
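Assay conditions: 2 μM ATP (radiolabelled), 20 μM PIP2, 3.4 nM PI3Kδ, 20 mM MOPS pH 6.7 with 10 mM MgCl2, 5 mM DTT, 0.03% CHAPS, 2 h at room temperature. Signal from bead-captured 33P product; IC50 versus solvent control.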
On the technique in general: In a scintillation proximity assay essentially only radioactivity close to the scintillant gives light.

Where a name gives a salt, the structure may show the parent alone. Read-outs that look alike come from different tables or passages of the source. Some results are limits rather than exact numbers.

PI3Kδ (p110δ/p85α) Recombinant Human Protein, sequence (O00329 whole entry): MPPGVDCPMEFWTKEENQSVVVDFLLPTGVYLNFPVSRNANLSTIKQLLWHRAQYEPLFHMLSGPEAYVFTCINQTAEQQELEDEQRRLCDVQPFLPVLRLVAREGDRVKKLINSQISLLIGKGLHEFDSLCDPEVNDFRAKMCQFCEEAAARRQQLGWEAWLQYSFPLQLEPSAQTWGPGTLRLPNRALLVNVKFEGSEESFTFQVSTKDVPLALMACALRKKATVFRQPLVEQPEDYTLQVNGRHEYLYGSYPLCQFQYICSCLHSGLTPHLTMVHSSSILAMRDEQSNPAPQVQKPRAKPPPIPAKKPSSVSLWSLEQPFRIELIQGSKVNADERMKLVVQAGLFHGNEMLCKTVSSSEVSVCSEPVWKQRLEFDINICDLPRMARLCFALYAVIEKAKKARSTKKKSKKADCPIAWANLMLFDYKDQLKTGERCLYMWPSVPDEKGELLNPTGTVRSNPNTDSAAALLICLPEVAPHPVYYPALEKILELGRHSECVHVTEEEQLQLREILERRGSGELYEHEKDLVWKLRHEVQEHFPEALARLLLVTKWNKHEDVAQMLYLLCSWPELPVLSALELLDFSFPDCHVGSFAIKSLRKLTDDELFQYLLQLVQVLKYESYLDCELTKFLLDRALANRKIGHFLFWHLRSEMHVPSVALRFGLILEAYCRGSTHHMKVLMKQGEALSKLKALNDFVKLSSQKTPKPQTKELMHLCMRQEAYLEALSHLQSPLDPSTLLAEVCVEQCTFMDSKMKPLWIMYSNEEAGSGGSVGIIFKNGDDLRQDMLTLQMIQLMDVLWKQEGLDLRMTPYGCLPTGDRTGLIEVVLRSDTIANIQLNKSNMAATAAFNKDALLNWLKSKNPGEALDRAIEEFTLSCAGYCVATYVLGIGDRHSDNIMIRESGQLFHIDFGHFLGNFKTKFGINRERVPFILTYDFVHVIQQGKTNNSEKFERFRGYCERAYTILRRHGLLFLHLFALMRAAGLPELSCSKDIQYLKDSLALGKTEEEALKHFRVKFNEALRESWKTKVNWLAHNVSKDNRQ
PI3Kδ (p110δ/p85α) Recombinant Human Protein, sequence (P27986 whole entry partner): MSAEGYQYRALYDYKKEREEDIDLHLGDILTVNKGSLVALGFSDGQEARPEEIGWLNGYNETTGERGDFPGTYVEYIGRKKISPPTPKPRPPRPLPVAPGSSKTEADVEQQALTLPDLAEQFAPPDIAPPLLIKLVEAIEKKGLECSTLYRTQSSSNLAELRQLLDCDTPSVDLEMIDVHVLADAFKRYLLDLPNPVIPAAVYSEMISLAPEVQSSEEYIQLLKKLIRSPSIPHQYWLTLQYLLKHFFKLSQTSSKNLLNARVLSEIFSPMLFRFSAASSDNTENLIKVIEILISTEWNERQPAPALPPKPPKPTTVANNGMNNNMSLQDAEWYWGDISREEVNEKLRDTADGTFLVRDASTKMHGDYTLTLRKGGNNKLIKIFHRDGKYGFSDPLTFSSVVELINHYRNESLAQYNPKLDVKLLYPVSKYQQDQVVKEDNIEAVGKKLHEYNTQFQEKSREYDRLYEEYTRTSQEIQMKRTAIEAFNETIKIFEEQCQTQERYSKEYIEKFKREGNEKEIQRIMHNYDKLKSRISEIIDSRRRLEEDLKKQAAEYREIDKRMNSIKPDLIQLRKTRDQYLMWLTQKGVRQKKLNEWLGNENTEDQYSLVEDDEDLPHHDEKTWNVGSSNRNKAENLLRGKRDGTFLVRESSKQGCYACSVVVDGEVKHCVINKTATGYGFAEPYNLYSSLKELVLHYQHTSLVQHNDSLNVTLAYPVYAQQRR
PI3Kγ (p110γ) Recombinant Human Protein, sequence (P48736 whole entry): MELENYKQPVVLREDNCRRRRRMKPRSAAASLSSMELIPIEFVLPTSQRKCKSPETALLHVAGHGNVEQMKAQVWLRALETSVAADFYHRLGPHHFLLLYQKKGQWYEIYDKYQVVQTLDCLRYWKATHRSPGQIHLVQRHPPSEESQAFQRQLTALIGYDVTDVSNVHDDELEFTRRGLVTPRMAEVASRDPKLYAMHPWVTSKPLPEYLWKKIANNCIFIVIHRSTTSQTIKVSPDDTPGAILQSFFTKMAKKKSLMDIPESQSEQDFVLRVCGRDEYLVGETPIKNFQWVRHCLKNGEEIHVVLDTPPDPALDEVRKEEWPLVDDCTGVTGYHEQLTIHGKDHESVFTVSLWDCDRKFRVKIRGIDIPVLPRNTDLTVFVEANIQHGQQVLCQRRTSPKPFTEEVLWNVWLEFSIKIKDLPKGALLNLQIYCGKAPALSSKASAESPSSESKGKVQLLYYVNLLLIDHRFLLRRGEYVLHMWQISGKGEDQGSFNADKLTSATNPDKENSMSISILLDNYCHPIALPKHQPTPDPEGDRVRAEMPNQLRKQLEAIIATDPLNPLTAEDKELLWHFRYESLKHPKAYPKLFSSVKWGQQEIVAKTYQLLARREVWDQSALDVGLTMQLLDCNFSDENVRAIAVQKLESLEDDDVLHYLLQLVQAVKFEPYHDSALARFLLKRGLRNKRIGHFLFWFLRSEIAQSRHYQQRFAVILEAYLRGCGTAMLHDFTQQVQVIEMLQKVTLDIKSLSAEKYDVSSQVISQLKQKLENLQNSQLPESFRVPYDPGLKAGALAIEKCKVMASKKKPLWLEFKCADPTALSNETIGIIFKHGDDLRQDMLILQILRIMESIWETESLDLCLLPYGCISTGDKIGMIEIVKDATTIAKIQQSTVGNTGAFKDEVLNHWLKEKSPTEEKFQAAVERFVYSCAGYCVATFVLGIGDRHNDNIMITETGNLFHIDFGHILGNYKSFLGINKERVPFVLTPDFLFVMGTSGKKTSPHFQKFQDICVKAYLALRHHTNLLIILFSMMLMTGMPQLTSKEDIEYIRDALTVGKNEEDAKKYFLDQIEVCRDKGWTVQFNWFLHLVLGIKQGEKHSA

Take `Cc1ccc(S(=O)(=O)N2CCC3(CCC(F)(F)CC3)C2)cc1-c1cnc2c(N)ncnn12` [Example 207, 7-(5-((8,8-Difluoro-2-azaspiro[4.5]decan-2-yl)sulfonyl)-2-methylphenyl)imidazo[2,1-f][1,2,4]triazin-4-amine]: the results for the IC50 in assay [1] (read-out: PI3Kγ IC50) and in assay [2] were below 100 nM and 100 to 500 nM, respectively.
On the same counts, the results for `Cc1ccc(S(=O)(=O)N2CCOC3CNCC32)cc1-c1cnc2c(N)nc(C(F)(F)F)cn12` (stereo not shown) [Example 304, 3-(5-((hexahydropyrrolo[3,4-b][1,4]oxazin-4(4aH)-yl)sulfonyl)-2-methylphenyl)-6-(trifluoromethyl)imidazo[1,2-a]pyrazin-8-amine] are below 100 nM and 500 to 2000 nM.
For `Cc1ccc(S(=O)(=O)NC23CC(CO)(C2)C3)cc1-c1cnc2c(N)ncnn12` [Example 105, 3-(4-Aminoimidazo[1,2-f][1,2,4]triazin-7-yl)-N-(3-(hydroxymethyl)bicyclo[1,1,1]pentan-1-yl)-4-methylbenzenesulfonamide trifluoroacetate salt] the same measures were below 100 nM and 500 to 2000 nM.
As for `COc1cccc(F)c1-c1cn2c(-c3cc(S(C)(=O)=O)ccc3C)cnc2c(N)n1` [Example 478, 6-(2-Fluoro-6-methoxyphenyl)-3-(2-methyl-5-(methylsulfonyl)phenyl)imidazo[1,2-a]pyrazin-8-amine trifluoroacetate], the IC50 in assay [1] (read-out: PI3Kγ IC50) was in the range of 100 to 500 nM; in assay [2] it was 500 to 2000 nM.
For `Cc1ccc(S(=O)(=O)N2CCS(=O)(=O)CC2C)cc1-c1cnc2c(N)ncnn12` (stereo not shown) [Example 162, 4-((3-(4-aminoimidazo[2,1-f][1,2,4]triazin-7-yl)-4-methylphenyl)sulfonyl)-3-methylthiomorpholine 1,1-dioxide] the same measures were below 100 nM and 500 to 2000 nM.
For `Cc1ccc(S(=O)(=O)N2CC3C(O)C2CN3C)cc1-c1cnc2c(N)nc(C(F)(F)F)nn12` (stereo not shown) [Example 352, 2-((3-(4-amino-2-(trifluoromethyl)imidazo[2,1-f][1,2,4]triazin-7-yl)-4-methylphenyl)sulfonyl)-5-methyl-2,5-diazabicyclo[2.2.1]heptan-7-ol] the same measures were below 100 nM and 500 to 2000 nM.
For `Cc1ccc(S(=O)(=O)N2CCC(c3ccncc3)C2)cc1-c1cnc2c(N)ncnn12` (stereo not shown) [Example 201, 7-(2-Methyl-5-((3-(pyridin-4-yl)pyrrolidin-1-yl)sulfonyl)phenyl)imidazo[2,1-f][1,2,4]triazin-4-amine] the same measures were below 100 nM and 500 to 2000 nM.
For the molecule `Cc1ccc(S(=O)(=O)N2CC3(CCN(C)C3=O)C2)cc1-c1cnc2c(N)ncnn12` [Example 195, 2-((3-(4-Aminoimidazo[2,1-f][1,2,4]triazin-7-yl)-4-methylphenyl)sulfonyl)-6-methyl-2,6-diazaspiro[3.4]octan-5-one], the IC50 in assay [1] (read-out: PI3Kγ IC50) was below 100 nM; in assay [2], 100 to 500 nM.
`Cc1ccc(S(=O)(=O)N2CCN(C3CC3)C(=O)C2)cc1-c1cnc2c(N)ncnn12` [Example 171, 4-((3-(4-aminoimidazo[2,1-f][1,2,4]triazin-7-yl)-4-methylphenyl)sulfonyl)-1-cyclopropylpiperazin-2-one]: the IC50 in assay [1] (read-out: PI3Kγ IC50) lay within 100 to 500 nM; in assay [2] it was 500 to 2000 nM.
For `Cc1ccc(S(=O)(=O)N2CCC(C)(C#N)C2)cc1-c1cnc2c(N)ncnn12` (stereo not shown) [Example 200, 1-((3-(4-Aminoimidazo[2,1-f][1,2,4]triazin-7-yl)-4-methylphenyl)sulfonyl)-3-methylpyrrolidine-3-carbonitrile] the same measures were below 100 nM and 500 to 2000 nM.
For `Nc1nccn2c(-c3ccc(Cl)c(S(=O)(=O)N[C@H]4CC[C@H](O)CC4)c3)cnc12` [Example 46, 5-(8-Aminoimidazo[1,2-a]pyrazin-3-yl)-2-chloro-N-(trans-4-hydroxycyclohexyl)benzenesulfonamide] the same measures were below 100 nM and 100 to 500 nM.
For the molecule `Cc1ccc(S(=O)(=O)N2CCC[C@H]2C(C)(C)O)cc1-c1cnc2c(N)ncnn12` [Example 213, (S)-2-(1-((3-(4-Aminoimidazo[2,1-f][1,2,4]triazin-7-yl)-4-methylphenyl)sulfonyl)pyrroldiin-2-yl)propan-2-ol], the 50% inhibitory concentration (IC50) in assay [1] (read-out: PI3Kγ IC50) was below 100 nM; in assay [2], 500 to 2000 nM.
In the case of `Cc1ccc(S(C)(=O)=O)cc1-c1cnc2c(N)nc(C(=O)NCCc3cnn(C)c3)cn12` [Example 453, 8-amino-N-(2-(1-methyl-1H-pyrazol-4-yl)ethyl)-3-(2-methyl-5-(methylsulfonyl)phenyl)imidazo[1,2-a]pyrazine-6-carboxamide trifluoroacetate salt], the IC50 in assay [1] (read-out: PI3Kγ IC50) and in assay [2] was 100 to 500 nM throughout.
For `Cc1ccc(S(=O)(=O)N2CCCC23CCOCC3)cc1-c1cnc2c(N)ncnn12` [Example 209, 7-(5-((8-Oxa-1-azaspiro[4.5]decan-1-yl)sulfonyl)-2-methylphenyl)imidazo[2,1-f][1,2,4]triazin-4-amine], the IC50 in assay [1] (read-out: PI3Kγ IC50) is below 100 nM; in assay [2], 500 to 2000 nM.
On the same counts, the results for `Cc1ccc(S(=O)(=O)NCC2CCOC2)cc1-c1cnc2c(N)ncnn12` (stereo not shown) [Example 67, 3-(4-Aminoimidazo[2,1-f][1,2,4]triazin-7-yl)-4-methyl-N-(tetrahydrofuran-3-ylmethyl)benzenesulfonamide] are 100 to 500 nM and above 2000 nM.
In the case of `Cc1ccc(S(=O)(=O)N(C)CC2(C)COC2)cc1-c1cnc2c(N)ncnn12` [Example 176, 3-(4-aminoimidazo[2,1-f][1,2,4]triazin-7-yl)-N,4-dimethyl-N-((3-methyloxetan-3-yl)methyl)benzenesulfonamide], the IC50 in assay [1] was 100 to 500 nM; in assay [2], above 2000 nM.
For the molecule `Cc1ccc(S(=O)(=O)N2CCC(O)C3(CC3)C2)cc1-c1cnc2c(N)ncnn12` (stereo not shown) [Example 119, 5-{[3-(4-aminoimidazo[2,1-f][1,2,4]triazin-7-yl)-4-methylphenyl]sulfonyl}-5-azaspiro[2.5]octan-8-ol], the values for the IC50 in assay [1] (read-out: PI3Kγ IC50) and in assay [2] were 100 to 500 nM and above 2000 nM, respectively.
On the same counts, the results for `Cc1ccc(S(=O)(=O)N2CC(C)OCC2(C)C)cc1-c1cnc2c(N)ncnn12` (stereo not shown) [Example 158, 7-(2-methyl-5-((2,5,5-trimethylmorpholino)sulfonyl)phenyl)imidazo[2,1-f][1,2,4]triazin-4-amine] are below 100 nM and 500 to 2000 nM.
For `Nc1ncnn2c(-c3ccc(F)c(S(=O)(=O)NC45CCC(CO)(C4)C5)c3)cnc12` [Example 366, 5-(4-Aminoimidazo[1,2-f][1,2,4]triazin-7-yl)-2-fluoro-N-(4-(hydroxymethyl)bicyclo[2.1.1]hexan-1-yl)benzenesulfonamide trifluoroacetate salt], the IC50 was below 100 nM in assay [1] (read-out: PI3Kγ IC50) and 100 to 500 nM in assay [2].
For `Cc1ccc(S(=O)(=O)N2CC[C@@H](C#N)C2)cc1-c1cnc2c(N)ncnn12` [Example 150, (R)-1-((3-(4-aminoimidazo[2,1-f][1,2,4]triazin-7-yl)-4-methylphenyl)sulfonyl)pyrrolidine-3-carbonitrile] the same measures were below 100 nM and 500 to 2000 nM.
On the same counts, the results for `Cc1ccc(S(=O)(=O)N2[C@@H]3CC[C@H]2CN(C)C3)cc1-c1cnc2c(N)ncnn12` [Example 170, 7-(2-methyl-5-(((1R,5S)-3-methyl-3,8-diazabicyclo[3.2.1]octan-8-yl)sulfonyl)phenyl)imidazo[2,1-f][1,2,4]triazin-4-amine] are below 100 nM and 500 to 2000 nM.
For `COc1ccc(-c2cnc3c(N)nccn23)cc1S(=O)(=O)N[C@H]1CC[C@H](O)CC1` [Example 43, 5-(8-Aminoimidazo[1,2-a]pyrazin-3-yl)-N-(trans-4-hydroxycyclohexyl)-2-methoxybenzenesulfonamide] the same measures were 100 to 500 nM and below 100 nM.
Take `N#Cc1ccc(S(=O)(=O)NC23CCC(CO)(C2)C3)cc1-c1cnc2c(N)nc(C(F)(F)F)cn12` [Example 401, 3-(8-Amino-6-(trifluoromethyl)imidazo[1,2-a]pyrazin-3-yl)-4-cyano-N-(4-(hydroxymethyl)bicyclo[2.1.1]hexan-1-yl)benzenesulfonamide trifluoroacetate salt]: the figures for the IC50 in assay [1] (read-out: PI3Kγ IC50) and in assay [2] were below 100 nM and above 2000 nM, respectively.
On to `Cc1ccc(S(=O)(=O)N2CC3(CC(O)C3)C2)cc1-c1cnc2c(N)nc(C(F)(F)F)cn12` [Example 297, 2-((3-(8-amino-6-(trifluoromethyl)imidazo[1,2-a]pyrazin-3-yl)-4-methylphenyl)sulfonyl)-2-azaspiro[3.3]heptan-6-ol], for which the figures for the IC50 in assay [1] (read-out: PI3Kγ IC50) and in assay [2] were below 100 nM and 500 to 2000 nM, respectively.
Take `Cc1ccc(S(=O)(=O)N[C@]2(C)C[C@H](O)C2)cc1-c1cnc2c(N)ncnn12` [Example 191, 3-(4-aminoimidazo[2,1-f][1,2,4]triazin-7-yl)-N-((1s,3s)-3-hydroxy-1-methylcyclobutyl)-4-methylbenzenesulfonamide]: the IC50 was below 100 nM in assay [1] (read-out: PI3Kγ IC50) and 500 to 2000 nM in assay [2].
On the same counts, the results for `Cc1ccc(S(=O)(=O)N2CC(=O)N3CCCC[C@@H]3C2)cc1-c1cnc2c(N)ncnn12` [Example 172, (R)-2-((3-(4-aminoimidazo[2,1-f][1,2,4]triazin-7-yl)-4-methylphenyl)sulfonyl)octahydro-4H-pyrido[1,2-a]pyrazin-4-one] are 100 to 500 nM and 500 to 2000 nM.

What is called IC50 is the midpoint of a concentration-inhibition curve.

These data come from patent US10479795B2 (Incyte Corporation, priority 2016, dated 2019).
